This passage reports EC50 results from patent US9150568B2, “Compositions and methods for modulating FXR” (NOVARTIS AG, priority 2010, dated 2015).

This test has as its target T1, human Farnesoid X Receptor (FXR) ligand binding domain (GST-FXR LBD) (Homo sapiens, UniProt Q96RI1).
T1 construct: purchased Invitrogen
T1 sequence (Q96RI1 193-472 isoform Q96RI1-2): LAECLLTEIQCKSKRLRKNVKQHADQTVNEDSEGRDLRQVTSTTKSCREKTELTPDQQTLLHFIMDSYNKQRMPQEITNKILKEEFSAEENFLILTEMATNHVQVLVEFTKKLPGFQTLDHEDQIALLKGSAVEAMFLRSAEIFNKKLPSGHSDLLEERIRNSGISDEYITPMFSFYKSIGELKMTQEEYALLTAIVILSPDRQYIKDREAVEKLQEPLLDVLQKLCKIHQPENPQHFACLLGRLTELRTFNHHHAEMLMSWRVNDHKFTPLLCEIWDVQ
Nature of the test: Human GST-FXR LBD co-activator interaction assay (HTRF). It is filed as biochemical. As to conditions: GST-FXR LBD / biotin-SRC-1 peptide FRET; response relative to GW4064; read-out: FXR Co-activator interaction assay (EC50). The source says:
Human GST-FXR LBD Co-activator interaction Assay. The FXR HTRF assay is a biochemical assay measuring the interaction between FXR and a coactivator protein (SRC1). The ligand-induced interaction with a coactivator protein is a critical step in transcriptional activation by FXR. Thus, this is an assay designed to measure FXR agonist activity of compounds.
The ligand-dependent interaction between GST-FXR LBD and a peptide derived from Steroid Receptor Coactivator-1 (SRC-1) was monitored by Fluorescence Resonance Energy Transfer (FRET). […] Test compounds (in DMSO solution) and detection reagents (anti-GST-Cryptate labeled antibody and Streptavidin-XL665 conjugate; CisBio) were added in assay buffer containing 50 mM KF.
A negative control (without Streptavidin-XL665) was run with each assay and represented the background fluorescence. A reference FXR agonist, GW4064, was included in each experiment as positive control. The efficacy of each test compound was compared to that of GW4064. At each concentration, the relative activity of the test compound was expressed as Response %=(Rsample−RDMSO)/(Rpositive−RDMSO), where Rsample is the HTRF response (expressed in Delta F %) for the test compound, Rpositive is the maximal response for GW4064 at saturating concentrations, and RDMSO is the response for DMSO control. The EC50 values were calculated using GraphPad Prism (GraphPad Software) using non-linear regression curve fit (log(agonist) vs. response—variable slope (four parameters)).
Regarding `O=C(O)c1ccc2nc(N3C4CC[C@H]3C[C@H](OCc3c(-c5ccccc5C(F)(F)F)noc3C3CC3)C4)sc2c1` [Example 6-1B], the EC50 was 0.67 nM.

As to `O=C(O)c1cn2nc(N3C4CC[C@H]3CC(OCc3c(-c5ccccc5OC(F)(F)F)noc3C3CC3)C4)ccc2n1` (stereo in doubt) [Example 31-1, 6-(3-((5-Cyclopropyl-3-(2-(trifluoromethoxy)phenyl)isoxazol-4-yl)methoxy)-8-azabicyclo[3.2.1]octan-8-yl)imidazo[1,2-b]pyridazine-2-carboxylic acid], the EC50 was found to be 12 nM.

In the case of `O=C(O)c1cc(F)c2nc(N3C4CC[C@H]3C[C@H](OCc3c(C5CCCCC5)noc3C3CC3)C4)sc2c1` [Example 9-1], the EC50 was found to be 5 nM.

For the molecule `O=C(O)c1cnc(N2C3CC[C@H]2C[C@H](OCc2c(C4CCCCC4C(F)(F)F)noc2C2CC2)C3)cn1` (stereo partly shown) [Example 8-5B], the EC50 was found to be 110 nM.

`O=C(O)c1ccc(N2[C@@H]3CC[C@H]2C[C@H](OCc2c(-c4ccccc4OC(F)(F)F)noc2C2CC2)C3)nc1` [Example 18-3B, 6-[(1R,5S)-3-({5-cyclopropyl-3-[2-(trifluoromethoxy)phenyl]-1,2-oxazol-4-yl}methoxy)-8-azabicyclo[3.2.1]octan-8-yl]pyridine-3-carboxylic acid]: the EC50 came out at 4 nM.

For the molecule `O=C(O)c1ccc(N2C3CC[C@H]2CC(OCc2c(-c4ccc(F)cc4F)noc2C2CC2)C3)nc1` (stereo partly shown) [Example 30-63], the EC50 stood at 57 nM.

Regarding `COC(=O)c1ccc(N2C3CC[C@H]2CC(OCc2c(-c4c(F)cccc4F)noc2C2CC2)C3)c(F)c1` (stereo partly shown) [Example 25-3A], the EC50 was found to be 80 nM.

As for `O=C(O)c1cnc(N2C3CC[C@H]2CC(OCc2c(-c4ccccc4C(F)(F)F)noc2C2CC2)C3)nc1` (stereo partly shown) [Example 21-2B], the EC50 stood at 10 nM.

For `COC(=O)c1ccc(N2C3CC[C@H]2CC(OCc2c(-c4ccccc4C(F)(F)F)noc2C2CC2)C3)c(F)c1` (stereo partly shown) [Example 25-5A], the 50% effective concentration (EC50) is 280 nM.

Take `Cc1c(N2C3CC[C@H]2CC(OCc2c(-c4ccccc4OC(F)(F)F)noc2C2CC2)C3)ccc2oc(C(=O)O)cc12` (stereo partly shown) [Example 28-11]: the half-maximal effective concentration (EC50) came out at 1.3 nM.

Take `Cc1ccccc1-c1noc(C2CC2)c1COC1CC2CC[C@@H](C1)N2c1nc2c(F)cc(C(=O)O)cc2s1` (stereo partly shown) [Example 30-1]: the EC50 stood at 0.3 nM.

For the molecule `Cc1cc(C(=O)O)nc(N2C3CC[C@H]2CC(OCc2c(-c4ccccc4Cl)noc2C2CC2)C3)n1` (stereo partly shown) [Example 30-22], the EC50 was found to be 19 nM.

For the molecule `COC(=O)c1cnc(N2C3CC[C@H]2C[C@H](OCc2c(-c4ccccc4OC(F)(F)F)noc2C2CC2)C3)nc1` [Example 18-4A], the EC50 turned out to be 20 nM.

With `O=C(O)c1cc(F)c2nc(N3[C@@H]4CC[C@H]3C[C@@H](OCc3c(-c5ccccc5C5CC5)noc3C3CC3)C4)sc2c1` [Example 30-23], the EC50 amounted to 0.4 nM.

`O=C(O)C1(c2ccc(N3C4CC[C@H]3CC(OCc3c(-c5ccccc5OC(F)(F)F)noc3C3CC3)C4)cc2)CC1` (stereo partly shown) [Example 28-7]: the EC50 worked out at 21 nM.

As to `O=C(O)c1ccnc(N2C3CC[C@H]2CC(OCc2c(-c4ccccc4C(F)(F)F)noc2C2CC2)C3)n1` (stereo partly shown) [Example 21-5B], the EC50 was found to be 10 nM.

As for `Cc1cccc(C)c1-c1noc(C2CC2)c1COC1CC2CC[C@@H](C1)N2c1ccc(C(=O)O)cn1` (stereo partly shown) [Example 30-15], the EC50 stood at 9 nM.

`COC(=O)c1ccnc(N2C3CC[C@H]2CC(OCc2c(-c4ccccc4C(F)(F)F)noc2C2CC2)C3)c1` (stereo partly shown) [Example 20A]: the EC50 was determined as 170 nM.

For `COC(=O)c1cnc(N2C3CC[C@H]2C[C@H](OCc2c(-c4ccccc4OC(F)(F)F)noc2C2CC2)C3)c(Br)c1` [Example 18-1, Methyl 5-bromo-6-((1S,3R)-3-((5-cyclopropyl-3-(2-(trifluoromethoxy)phenyl)isoxazol-4-yl)methoxy)-8-azabicyclo[3.2.1]octan-8-yl)nicotinate], the EC50 amounted to 9 nM.

Take `Cc1cc(C(=O)O)cc2sc(N3C4CC[C@H]3CC(OCc3c(-c5ccc(F)cc5)noc3C3CC3)C4)nc12` (stereo partly shown) [Example 30-35]: the EC50 came to 46 nM.

For `COC(=O)c1cccc(N2C3CC[C@H]2CC(OCc2c(-c4ccccc4C(F)(F)F)noc2C2CC2)C3)n1` (stereo partly shown) [Example 21-6A], the EC50 is 60 nM.

As to `COc1cc(C(=O)O)cc2sc(N3C4CC[C@H]3CC(OCc3c(-c5c(C)cccc5F)noc3C3CC3)C4)nc12` (stereo partly shown) [Example 30-11], the EC50 stood at 0.3 nM.

Regarding `O=C(O)c1cc2ccc(N3C4CC[C@H]3CC(OCc3c(-c5ccccc5OC(F)(F)F)noc3C3CC3)C4)cc2o1` (stereo partly shown) [Example 28-15], the EC50 was 3.4 nM.

For `COc1cc(C(=O)O)cc2sc(N3C4CC[C@H]3CC(OCc3c(-c5cccc(F)c5F)noc3C3CC3)C4)nc12` (stereo partly shown) [Example 30-64], the EC50 was 7 nM.

As for `Cc1nc(N2C3CC[C@H]2CC(OCc2c(-c4c(F)cccc4Cl)noc2C2CC2)C3)ccc1C(=O)O` (stereo partly shown) [Example 30-52], the EC50 is 26 nM.

In the case of `O=C(NCCS(=O)(=O)O)c1cc(F)c2nc(N3C4CC[C@H]3C[C@H](OCc3c(-c5ccccc5OC(F)(F)F)noc3C3CC3)C4)sc2c1` [Example 16-2], the EC50 was 0.4 nM.

With `COC(=O)c1cc(F)c2nc(N3C4CC[C@H]3C[C@H](OCc3c(-c5c(F)cccc5F)noc3C3CC3)C4)sc2c1` [Example 6-7A], the EC50 was 14 nM.

Consider `Cn1nc(C(=O)O)c2cc(N3C4CC[C@H]3CC(OCc3c(-c5ccccc5OC(F)(F)F)noc3C3CC3)C4)ccc21` (stereo partly shown) [Example 28-16], for which the EC50 was found to be 63 nM.

Consider `O=C(O)c1ccc2nc(N3C4CC[C@H]3CC(OCc3c(-c5ccccc5OC(F)(F)F)noc3C3CC3)C4)sc2c1` (stereo partly shown) [Example 3B], for which the EC50 is 0.74 nM.

Consider `Cn1ccc2c(N3C4CC[C@H]3CC(OCc3c(-c5ccccc5OC(F)(F)F)noc3C3CC3)C4)ncc(C(=O)O)c21` (stereo partly shown) [Example 30-58], for which the EC50 came to 210 nM.

`COC(=O)c1cnc(N2C3CC[C@H]2C[C@H](OCc2c(-c4ccccc4OC(F)(F)F)noc2C2CC2)C3)cn1` [Example 18-5A]: the EC50 was 20 nM.

As for `COC(=O)c1cc(F)c2nc(N3C4CC[C@H]3CC(OCc3c(-c5ccccc5OC(F)(F)F)noc3C3CC3)C4)sc2c1` (stereo partly shown) [Example 1-1A, Methyl 2-(3-((5-cyclopropyl-3-(2-(trifluoromethoxy)phenyl)isoxazol-4-yl)methoxy)-8-azabicyclo[3.2.1]octan-8-yl)-4-fluorobenzo[d]thiazole-6-carboxylate], the EC50 was found to be 14 nM.

For `Cc1cc(N2C3CC[C@H]2CC(OCc2c(-c4ccccc4OC(F)F)noc2C2CC2)C3)ncc1C(=O)O` (stereo partly shown) [Example 22-4B], the EC50 turned out to be 9 nM.

Consider `COC(=O)c1cc(C)c2nc(N3C4CC[C@H]3CC(OCc3c(-c5ccccc5OC(F)(F)F)noc3C3CC3)C4)sc2c1` (stereo partly shown) [Example 30-28], for which the EC50 turned out to be 12 nM.

Regarding `Cc1cc(C(=O)O)nc(N2C3CC[C@H]2C[C@H](OCc2c(C4CCCCC4)noc2C2CC2)C3)n1` [Example 8-7B], the EC50 came to 130 nM.

`COC(=O)c1cc(F)c2nc(N3C4CC[C@H]3C[C@H](OCc3c(-c5ccccc5OC(F)F)noc3C3CC3)C4)sc2c1` [Example 6-3A]: the EC50 was 12 nM.

With `O=C(O)c1ccc2nc(N3C4CC[C@H]3C[C@H](OCc3c(C5CC5c5ccccc5)noc3C3CC3)C4)sc2c1` (stereo partly shown) [Example 10B, 2-(3-((5-cyclopropyl-3-(2-phenylcyclopropyl)isoxazol-4-yl)methoxy)-8-azabicyclo[3.2.1]octan-8-yl)benzo[d]thiazole-6-carboxylic acid], the EC50 came to 98 nM.

As usually defined, the EC50 is the concentration at which the effect is half-maximal.
